Read-outs that look alike come from different tables or passages of the source.
Legend:
[1] = Liver microsomal stability in vitro, mouse; format: in vitro ADME; conditions: pH 7.4; mouse liver microsomes 0.5 mg protein/mL, 1 μM test compound, 37° C.; read-out: Mouse T1/2
Description: Evaluation of in vitro liver microsomal stability of the compound of the present disclosure was tested by the following method:
Buffer: 100 mM potassium phosphate buffer, pH 7.4; […] MgCl2.
Liver microsomes: human liver microsomes, Corning Cat No. 452117; Rat liver microsomes, Xenotech Cat No. R1000; Mouse liver microsomes, Xenotech Cat No. M1000; Dog liver microsomes, Xenotech Cat No. D1000; Liver microsomes of cynomolgus monkey, Corning Cat No. 452413, the final concentration was 0.5 mg protein/mL.
1. Intermediate solution: 5 μL of compound or control in stock solution (10 mM) was diluted with 495 μL of methanol (concentration: 100 μM, 99% MeOH).
2. Operating solution: the intermediate solution was diluted […] with 450 μL 100 mM potassium phosphate buffer (concentration: 10 μM, 9.9% MeOH).
1. 10 μL of compound or control solution per well was added to all plates (T0, T5, T10, T20, T30, T60, NCF60) except matrix blank.
2. Microsome solution was distributed to 96-well plates according to platemap for standby, 680 μL per well, and the mixture of microsome solution and the compound was incubated at 37° C. for about 10 minutes.
4. […]
10. Data analysis: The peak area of the corresponding compound and internal standard was detected by LC-MS/MS, and the T1/2 of the compound was calculated by the following formula: […]

[2] = biological target: T1, CYP2C9 (Homo sapiens, UniProt P11712); assay: Inhibition of human liver microsomal CYP450 enzymes, CYP2C9; format: in vitro ADME; conditions: human liver microsomes, substrate Diclofenac 10 μM; Reference = sulfaphenazole; read-out: IC50 2C9
T1 construct: from tissue; host or cells: human liver microsomes (HLM)
Description: The inhibitory effects of the compound of the present disclosure on the CYP450 enzymes of six human subtypes were determined by the following experimental method:
Reference compounds of each subtype: CYP1A2: α-naphthoflavone; CYP2C9: sulfaphenazole; CYP2C19: omeprazole; CYP3A4: ketoconazole; CYP2D6: quinidine.
Substrate concentration: CYP1A2: Phenacetin at 30 μM; CYP2C9: Diclofenac at 10 μM; CYP2C19: S-Mephenytoin at 35 μM; CYP3A4: Midazolam at 5 μM and Testosterone at 80 μM; CYP2D6: Bufuralol at 10 μM.
6. 0.2 mg/mL of HLM was added to the test wells, 400 μL per well, and then the gradient diluted 400× test compound was added to the corresponding wells.
7. 0.2 mg/mL of HLM was added to the test wells, 200 μL per well, and then the gradient-diluted reference inhibitor was added to the corresponding wells. Steps 6 and 7 needed to be performed on ice.
8.1. 30 μL of test compound and reference compound were mixed in 0.2 mg/mL of HLM solution (see steps 6 and 7).
8.2. 15 μL of 4× substrate solution (see step 4) was added.
10. Preheated 8 mM of NADPH solution was added to the 96-well test plate (see step 3) to initiate the reaction, 15 μL per well.
11. The test plate was incubated at 37° C.: 3A4 for 5 minutes, each of 1A2, 2C9 and 2D6 for 10 minutes, and 2C19 for 45 minutes.
12. ACN containing internal reference was added to stop the reaction, 120 μL per well.
14. […]

[3] = biological target: T2, PARP1 (Homo sapiens, UniProt P09874); assay: PARP1 Colorimetric Assay (PARP-1 kinase inhibitory activity); format: biochemical; conditions: PARP1 colorimetric assay kit, 1 hour at room temperature; read-out: PARP1 (in vitro enzymatic inhibitory activity, IC50)
T2 construct: purchased BPS 80580
Description: PARP1 kinase activity was tested by the following method:
PARP1 Colorimetric Assay Kit (BPS, Cat #80580)
1. PARP1 Colorimetric Assay
2) 50 μL of diluted coating solution was added to each well for overnight at 4° C.
4) 200 μL of blocking buffer was added to each well and incubated at room temperature for 90 minutes.
1) A reaction solution was prepared in a ratio of […] 2.5 μL 10×PARP buffer+2.5 μL 10×PARP Assay mixture+5 μL Activated DNA+15 μL deionized water per well, and 25 μL of the reaction solution was added to each well (see Table 1).
4) 100 μL of colorimetric HRP substrate was added to each well and reacted at room temperature for 20 minutes.
5) 100 μL of 2 M H2SO4 was added to each well and OD 450 nm was read on a microplate reader.

[4] = biological target: T3, CYP3A4 (Homo sapiens, UniProt P08684); assay: Inhibition of human liver microsomal CYP450 enzymes, CYP3A4; format: in vitro ADME; conditions: human liver microsomes, Reference = ketoconazole
T3 construct: from tissue; host or cells: human liver microsomes (HLM)
T3 sequence (P08684 whole entry): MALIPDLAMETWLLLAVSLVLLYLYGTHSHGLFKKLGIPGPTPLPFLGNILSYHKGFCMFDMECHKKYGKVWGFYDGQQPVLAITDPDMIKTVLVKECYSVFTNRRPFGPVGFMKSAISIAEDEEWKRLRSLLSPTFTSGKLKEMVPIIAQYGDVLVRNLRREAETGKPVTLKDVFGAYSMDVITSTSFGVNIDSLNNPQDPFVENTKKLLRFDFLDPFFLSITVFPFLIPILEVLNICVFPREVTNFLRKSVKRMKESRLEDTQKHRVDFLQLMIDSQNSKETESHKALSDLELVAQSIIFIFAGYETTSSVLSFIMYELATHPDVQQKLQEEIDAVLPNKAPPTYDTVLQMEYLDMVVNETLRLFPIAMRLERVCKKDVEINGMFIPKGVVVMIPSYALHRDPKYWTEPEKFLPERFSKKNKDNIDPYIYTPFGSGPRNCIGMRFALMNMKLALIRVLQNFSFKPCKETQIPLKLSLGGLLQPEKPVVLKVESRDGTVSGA
Description: 50 μL of supernatant from each well was transferred to a 96-well sample plate containing 50 μL of ultrapure water (Millipore, ZMQS50F01) for LC/MS analysis. […]

T1 sequence (P11712 whole entry): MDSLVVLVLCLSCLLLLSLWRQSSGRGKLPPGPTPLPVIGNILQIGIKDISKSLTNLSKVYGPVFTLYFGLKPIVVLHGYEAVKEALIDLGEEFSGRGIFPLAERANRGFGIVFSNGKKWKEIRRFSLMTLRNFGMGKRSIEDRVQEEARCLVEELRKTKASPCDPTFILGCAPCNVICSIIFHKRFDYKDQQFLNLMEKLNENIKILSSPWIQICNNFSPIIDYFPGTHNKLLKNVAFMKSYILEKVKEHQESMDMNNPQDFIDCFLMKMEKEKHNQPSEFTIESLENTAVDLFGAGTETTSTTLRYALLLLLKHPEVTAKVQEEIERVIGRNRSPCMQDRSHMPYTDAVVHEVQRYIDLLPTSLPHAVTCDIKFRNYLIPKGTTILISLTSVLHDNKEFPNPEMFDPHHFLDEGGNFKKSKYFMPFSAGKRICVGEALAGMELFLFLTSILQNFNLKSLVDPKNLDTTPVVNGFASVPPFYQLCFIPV
T2 sequence (P09874 whole entry): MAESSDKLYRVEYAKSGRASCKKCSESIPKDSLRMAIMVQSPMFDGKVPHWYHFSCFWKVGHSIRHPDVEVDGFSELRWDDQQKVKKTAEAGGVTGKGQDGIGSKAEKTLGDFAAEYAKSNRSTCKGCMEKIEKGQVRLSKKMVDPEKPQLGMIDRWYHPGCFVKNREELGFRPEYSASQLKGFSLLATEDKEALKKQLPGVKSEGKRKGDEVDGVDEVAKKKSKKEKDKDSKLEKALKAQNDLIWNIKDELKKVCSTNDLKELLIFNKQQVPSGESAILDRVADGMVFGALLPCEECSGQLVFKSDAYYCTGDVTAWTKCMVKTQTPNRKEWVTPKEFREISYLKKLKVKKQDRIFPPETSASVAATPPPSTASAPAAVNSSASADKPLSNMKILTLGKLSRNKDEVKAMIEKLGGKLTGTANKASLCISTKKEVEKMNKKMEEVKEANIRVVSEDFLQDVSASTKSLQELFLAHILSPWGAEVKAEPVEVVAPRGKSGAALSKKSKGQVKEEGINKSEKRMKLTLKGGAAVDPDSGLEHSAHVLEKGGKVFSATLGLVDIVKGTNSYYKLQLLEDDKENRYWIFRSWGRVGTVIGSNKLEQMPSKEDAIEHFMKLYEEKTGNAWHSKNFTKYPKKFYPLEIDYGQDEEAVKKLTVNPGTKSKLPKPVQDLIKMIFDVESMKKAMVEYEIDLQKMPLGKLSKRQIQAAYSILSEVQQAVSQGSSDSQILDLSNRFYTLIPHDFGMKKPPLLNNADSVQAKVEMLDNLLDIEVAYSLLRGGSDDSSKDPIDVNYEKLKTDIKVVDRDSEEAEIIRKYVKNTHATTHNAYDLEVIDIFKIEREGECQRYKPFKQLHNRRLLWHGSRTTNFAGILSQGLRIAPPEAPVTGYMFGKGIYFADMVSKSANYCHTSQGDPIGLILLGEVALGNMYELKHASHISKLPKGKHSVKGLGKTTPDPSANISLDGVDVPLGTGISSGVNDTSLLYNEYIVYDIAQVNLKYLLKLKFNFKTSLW

IC50 [3] | IC50 ([4]; substrate Midazolam 5 μM, read-out: IC50 3A4 (Midazolam)) | IC50 ([4]; substrate Testosterone 80 μM, read-out: IC50 3A4 (Testosterone)) | SMILES | half-life at 1 μM [1] | IC50 [2]
– | – | – | NC(=O)c1cccc2cn(-c3ccc([C@@H]4CCCNC4)cc3)nc12 [Niraparib, reference compound] | 1.83 h | > 10 µM
< 0.1 µM | > 10 µM | > 10 µM | NC(=O)c1cccc2cn(-c3ccc([C@]4(F)CCCNC4)cc3)nc12 (single isomer, unassigned) [Example 23, (R or S)-2-(4-(3-fluoropiperidin-3-yl)phenyl)-2H-indazole-7-carboxamide] | 1.02 h | > 10 µM

Source: US11072596B2, “Poly(ADP-ribose) polymerase inhibitor, preparation method and use” (SELECTION BIOSCIENCE LLC, priority 2017, dated 2021)
